From patent US6228886A, “Nutritional formulations containing water-miscible lipid derivatives as antibacterial agents” (Abbott Laboratories, priority 2000, dated 2001)

Key:
RSV [1] = conditions: carrageenan removed from the formulation; cited from earlier work
RSV [2] = test: In vivo prevention of RSV infection in cotton rats; conditions: 1000 mg/L Carrageenan in M. Similac®
Source text: Cotton rats have been used as an RSV research animal model for about 20 years. The cotton rat has a similar pathological change in the lung to that observed in human infants when infected by RSV (Prince et al., 1978). […] It has also been observed that the intravenously-administered RSV-IgG has to reach a titer of ≥1:100 concentration to show the preventive effect (Prince et al., 1985). The same serum concentration of RSV-IgG in human infants is protective (Groothuis et al., 1993, 1995). Due to these similarities, the FDA has recommended the cotton rat as an appropriate model for RSV studies.
To have a repeatable RSV nasal and lung infection, a high RSV dose (10^4 pfu/animal) was intra-nasally inoculated to all animals. The inoculum (100 μl) consisted of 50 μl of RSV stock solution and 50 μl of test product. […] In addition, some studies were performed in an infant formula in which the intact protein was replaced with a casein hydrolysate (Alimentum®). All animals consumed the regular rodent chow diet throughout the experimental period. Four days after RSV challenge, all animals were sacrificed. Their lung and nasal tissue were isolated for determination of RSV titers. As a positive control, a 5% RSV-IgG was always used. […]

Carrageenan
anti-RSV activity, previously found (RSV [1]): anti-RSV activity
RSV titer in Lung (RSV [2]): 3.06 ± 0.16 Log10 PFU/g tissue
RSV titer in Nose (RSV [2]): 3.78 ± 0.47 Log10 PFU/g tissue
